Data as given in paper PMC3147164 (mBio, 2011).

Experiments:
[1] = biological target: HK_4262 (Myxococcus xanthus, UniProt Q1D4I6); details: excess ATP; kinase buffer pH 8.0, 10 mM MgCl2; labelled compound
[2] = biological target: HK_1190 (Myxococcus xanthus, UniProt Q1DD24); details: excess ATP; kinase buffer pH 8.0, 10 mM MgCl2; labelled compound
HK_1190, sequence (Q1DD24 205-424): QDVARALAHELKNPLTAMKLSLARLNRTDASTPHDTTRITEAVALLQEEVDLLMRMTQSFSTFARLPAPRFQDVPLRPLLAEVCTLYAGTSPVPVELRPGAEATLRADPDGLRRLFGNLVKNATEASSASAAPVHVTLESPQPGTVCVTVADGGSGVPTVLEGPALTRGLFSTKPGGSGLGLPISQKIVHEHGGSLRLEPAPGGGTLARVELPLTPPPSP

HK_4262, sequence (Q1D4I6 477-702): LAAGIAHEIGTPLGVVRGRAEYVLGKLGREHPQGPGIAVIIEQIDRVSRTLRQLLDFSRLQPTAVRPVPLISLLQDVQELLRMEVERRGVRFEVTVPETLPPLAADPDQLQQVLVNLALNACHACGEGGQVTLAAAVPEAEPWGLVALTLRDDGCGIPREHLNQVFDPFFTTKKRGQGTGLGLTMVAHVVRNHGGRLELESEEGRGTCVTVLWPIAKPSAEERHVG

Nc1ncnc2c1ncn2[C@@H]1O[C@H](COP(=O)(O)OP(=O)(O)OP(=O)(O)O)[C@@H](O)[C@H]1O [ATP]
autophosphorylation, radiolabel gel assay [1]: Both kinases were capable of autophosphorylation
autophosphorylation, radiolabel gel assay [2]: Both kinases were capable of autophosphorylation
